Laboratory results as given in patent US20250034216A1, “STEREOSELECTIVE COVALENT LIGANDS FOR ONCOGENIC AND IMMUNOLOGICAL PROTEINS” (The Scripps Research Institute, priority 2021, published 2025).

Tests used:
Test in all cases: IA-DTB cysteine engagement
Format in all cases: binding
VPS18_C522 = target: T1, VPS18_C522 (Homo sapiens, UniProt Q9P253); details: 22Rv1 cells, 20 μM probe, 1 h, relative to DMSO
T1 construct: endogenous in cells; host or cells: 22Rv1
T1 sequence (Q9P253 1-973): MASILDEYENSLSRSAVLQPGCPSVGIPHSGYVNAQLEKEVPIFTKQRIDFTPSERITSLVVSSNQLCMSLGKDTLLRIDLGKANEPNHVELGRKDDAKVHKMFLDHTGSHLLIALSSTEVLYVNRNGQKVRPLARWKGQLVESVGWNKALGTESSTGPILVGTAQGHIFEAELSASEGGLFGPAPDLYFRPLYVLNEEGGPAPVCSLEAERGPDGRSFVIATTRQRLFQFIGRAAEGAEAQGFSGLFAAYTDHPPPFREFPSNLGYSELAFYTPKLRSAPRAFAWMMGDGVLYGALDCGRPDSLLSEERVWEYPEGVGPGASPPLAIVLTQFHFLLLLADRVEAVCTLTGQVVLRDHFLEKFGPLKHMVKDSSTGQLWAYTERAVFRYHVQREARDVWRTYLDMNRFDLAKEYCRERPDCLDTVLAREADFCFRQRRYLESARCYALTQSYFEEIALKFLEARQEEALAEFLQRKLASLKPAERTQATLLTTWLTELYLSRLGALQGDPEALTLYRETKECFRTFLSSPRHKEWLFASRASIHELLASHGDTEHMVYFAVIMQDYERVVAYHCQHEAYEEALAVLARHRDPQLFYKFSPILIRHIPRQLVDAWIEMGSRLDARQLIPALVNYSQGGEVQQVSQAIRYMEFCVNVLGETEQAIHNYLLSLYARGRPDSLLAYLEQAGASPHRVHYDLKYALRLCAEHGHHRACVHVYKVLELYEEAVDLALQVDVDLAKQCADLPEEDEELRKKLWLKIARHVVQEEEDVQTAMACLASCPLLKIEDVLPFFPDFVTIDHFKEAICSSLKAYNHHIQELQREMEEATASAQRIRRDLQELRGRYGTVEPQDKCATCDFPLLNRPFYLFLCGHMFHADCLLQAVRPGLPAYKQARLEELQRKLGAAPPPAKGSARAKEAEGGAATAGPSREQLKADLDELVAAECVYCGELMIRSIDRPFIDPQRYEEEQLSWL
In short: (§1)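 First, cells are exposed to electrophilic probes in situ. Next, lysates are labeled with IA-DTB (1 h, ambient temperature), reduced, alkylated and trypsin-digested. Then, IA-DTB peptides are enriched on streptavidin, TMT-labeled and analyzed, with ratios taken against DMSO channels.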

ABHD16A_C205 = target: T2, ABHD16A_C205 (Homo sapiens, UniProt O95870); details: 22Rv1 cells, relative to DMSO; for % engagement ABHD16A_C205: 20 μM probe, 1 h; for % engagement ABHD16A_205: 5 μM probe, 1 h (FIG. 5B)
T2 construct: endogenous in cells; host or cells: 22Rv1
T2 sequence (O95870 1-558): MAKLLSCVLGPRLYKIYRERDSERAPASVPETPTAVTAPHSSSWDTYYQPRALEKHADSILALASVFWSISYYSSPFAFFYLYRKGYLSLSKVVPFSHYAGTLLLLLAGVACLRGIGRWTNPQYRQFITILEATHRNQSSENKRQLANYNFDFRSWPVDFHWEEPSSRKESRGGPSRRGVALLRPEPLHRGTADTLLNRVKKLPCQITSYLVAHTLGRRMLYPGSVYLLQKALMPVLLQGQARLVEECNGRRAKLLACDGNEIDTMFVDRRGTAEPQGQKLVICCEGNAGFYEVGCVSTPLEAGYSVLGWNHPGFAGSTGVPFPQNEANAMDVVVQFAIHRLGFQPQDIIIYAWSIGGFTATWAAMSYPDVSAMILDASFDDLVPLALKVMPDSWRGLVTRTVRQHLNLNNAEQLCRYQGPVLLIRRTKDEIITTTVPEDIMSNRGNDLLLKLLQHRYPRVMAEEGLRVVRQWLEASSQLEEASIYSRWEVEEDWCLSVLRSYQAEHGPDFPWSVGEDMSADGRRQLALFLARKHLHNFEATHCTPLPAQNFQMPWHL
In short: as §1

UBR5_C2094 = target: T3, UBR5_C2094 (Homo sapiens, UniProt O95071); details: 22Rv1 cells, 20 μM probe, 1 h, relative to DMSO
T3 construct: endogenous in cells; host or cells: 22Rv1
In short: as §1

T3 sequence (O95071 whole entry): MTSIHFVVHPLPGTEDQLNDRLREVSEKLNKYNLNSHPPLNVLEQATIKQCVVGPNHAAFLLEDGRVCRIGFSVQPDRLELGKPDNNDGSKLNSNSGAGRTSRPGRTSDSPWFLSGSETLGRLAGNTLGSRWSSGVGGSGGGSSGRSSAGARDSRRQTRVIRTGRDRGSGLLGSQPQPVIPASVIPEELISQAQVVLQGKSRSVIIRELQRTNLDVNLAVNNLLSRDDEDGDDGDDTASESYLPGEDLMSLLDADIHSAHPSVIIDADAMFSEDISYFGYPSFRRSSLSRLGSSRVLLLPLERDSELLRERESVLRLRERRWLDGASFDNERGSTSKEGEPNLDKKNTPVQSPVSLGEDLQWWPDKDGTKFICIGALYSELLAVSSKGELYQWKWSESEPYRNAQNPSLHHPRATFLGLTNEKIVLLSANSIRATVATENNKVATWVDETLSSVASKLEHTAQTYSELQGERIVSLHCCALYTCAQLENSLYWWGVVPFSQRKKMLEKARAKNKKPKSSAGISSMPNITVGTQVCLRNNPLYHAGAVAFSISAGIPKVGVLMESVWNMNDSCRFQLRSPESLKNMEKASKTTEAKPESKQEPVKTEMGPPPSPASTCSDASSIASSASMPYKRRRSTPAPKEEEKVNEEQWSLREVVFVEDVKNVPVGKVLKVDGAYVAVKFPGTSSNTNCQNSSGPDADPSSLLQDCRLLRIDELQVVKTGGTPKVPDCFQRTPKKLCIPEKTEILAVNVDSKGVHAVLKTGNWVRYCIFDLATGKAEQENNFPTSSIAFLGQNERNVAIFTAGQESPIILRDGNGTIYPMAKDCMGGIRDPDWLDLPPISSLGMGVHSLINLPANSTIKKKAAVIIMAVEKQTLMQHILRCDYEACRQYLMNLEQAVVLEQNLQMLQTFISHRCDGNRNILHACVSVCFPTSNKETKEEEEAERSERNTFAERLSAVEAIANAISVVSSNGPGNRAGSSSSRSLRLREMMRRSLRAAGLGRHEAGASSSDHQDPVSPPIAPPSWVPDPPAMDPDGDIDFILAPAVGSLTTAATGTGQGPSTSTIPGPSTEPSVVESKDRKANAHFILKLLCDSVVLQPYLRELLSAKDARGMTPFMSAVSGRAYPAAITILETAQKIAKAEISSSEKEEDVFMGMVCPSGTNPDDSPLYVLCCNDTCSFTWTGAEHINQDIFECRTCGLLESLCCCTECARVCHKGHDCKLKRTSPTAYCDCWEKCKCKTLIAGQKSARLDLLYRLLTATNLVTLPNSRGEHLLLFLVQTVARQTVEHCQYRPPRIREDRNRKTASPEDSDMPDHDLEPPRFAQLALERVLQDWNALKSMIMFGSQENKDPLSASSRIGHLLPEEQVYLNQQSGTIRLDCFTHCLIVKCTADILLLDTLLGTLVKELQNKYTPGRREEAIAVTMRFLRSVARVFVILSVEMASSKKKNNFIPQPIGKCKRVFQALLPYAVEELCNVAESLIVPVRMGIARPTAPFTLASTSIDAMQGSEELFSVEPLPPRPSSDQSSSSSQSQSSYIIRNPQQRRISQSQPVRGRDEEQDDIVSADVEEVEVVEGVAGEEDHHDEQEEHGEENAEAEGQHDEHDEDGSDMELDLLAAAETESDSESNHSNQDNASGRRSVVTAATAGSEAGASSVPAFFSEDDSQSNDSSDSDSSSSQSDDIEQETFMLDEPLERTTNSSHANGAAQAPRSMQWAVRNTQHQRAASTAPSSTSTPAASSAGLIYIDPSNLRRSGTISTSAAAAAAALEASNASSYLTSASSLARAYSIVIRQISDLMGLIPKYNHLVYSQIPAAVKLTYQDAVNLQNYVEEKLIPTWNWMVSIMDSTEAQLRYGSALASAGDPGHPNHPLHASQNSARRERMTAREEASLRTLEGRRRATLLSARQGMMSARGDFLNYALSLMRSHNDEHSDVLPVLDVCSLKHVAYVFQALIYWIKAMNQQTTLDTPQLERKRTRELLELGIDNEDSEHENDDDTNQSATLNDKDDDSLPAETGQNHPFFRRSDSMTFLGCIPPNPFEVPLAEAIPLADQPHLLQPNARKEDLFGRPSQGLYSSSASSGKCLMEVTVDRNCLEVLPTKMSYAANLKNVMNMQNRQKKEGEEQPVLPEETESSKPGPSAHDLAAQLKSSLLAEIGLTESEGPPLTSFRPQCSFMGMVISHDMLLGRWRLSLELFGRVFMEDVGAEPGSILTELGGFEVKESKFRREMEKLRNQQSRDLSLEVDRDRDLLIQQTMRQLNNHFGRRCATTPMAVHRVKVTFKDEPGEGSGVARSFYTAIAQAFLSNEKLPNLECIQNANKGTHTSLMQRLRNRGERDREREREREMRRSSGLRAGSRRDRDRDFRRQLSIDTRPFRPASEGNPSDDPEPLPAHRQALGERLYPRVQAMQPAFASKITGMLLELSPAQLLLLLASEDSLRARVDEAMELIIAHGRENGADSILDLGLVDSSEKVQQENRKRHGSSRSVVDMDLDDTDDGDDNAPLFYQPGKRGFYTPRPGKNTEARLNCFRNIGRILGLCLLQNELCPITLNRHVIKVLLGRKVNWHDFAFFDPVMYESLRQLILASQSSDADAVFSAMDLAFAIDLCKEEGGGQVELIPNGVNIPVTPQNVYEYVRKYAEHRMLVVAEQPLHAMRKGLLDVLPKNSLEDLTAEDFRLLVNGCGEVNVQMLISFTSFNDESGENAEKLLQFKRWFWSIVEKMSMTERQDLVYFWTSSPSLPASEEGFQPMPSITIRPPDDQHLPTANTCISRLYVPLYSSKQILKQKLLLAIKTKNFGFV

SMILES | % engagement VPS18_C522 (VPS18_C522) [%] | % engagement ABHD16A_C205 (ABHD16A_C205) [%] | % engagement UBR5_C2094 (UBR5_C2094) [%] | % engagement ABHD16A_205 (ABHD16A_C205) [%]
C=CC(=O)N1C[C@@H](c2ccc(Br)cc2)[C@H]1C(=O)Nc1cccc2cccnc12 [MY-1A, (2S,3R)-1-acryloyl-3-(4-bromophenyl)-N-(quinolin-8-yl)azetidine-2-carboxamide] | −22 | 67.75 | 23 | –
C=CC(=O)N1C[C@H](c2ccc(Br)cc2)[C@@H]1C(=O)Nc1cccc2cccnc12 [MY-1B, (2R,3S)-1-acryloyl-3-(4-bromophenyl)-N-(quinolin-8-yl)azetidine-2-carboxamide] | 45 | 80.25 | 40.5 | 83.67
C=CC(=O)N1C[C@H](c2ccc(Br)cc2)[C@H]1C(=O)Nc1cccc2cccnc12 [MY-3A, (2S,3S)-1-acryloyl-3-(4-bromophenyl)-N-(quinolin-8-yl)azetidine-2-carboxamide] | 88 | 73.25 | 22.5 | –

Results, then the compound that gave them:

% engagement VPS18_C522 (VPS18_C522) [%] | % engagement ABHD16A_C205 (ABHD16A_C205) [%] | % engagement UBR5_C2094 (UBR5_C2094) [%] | % engagement ABHD16A_205 (ABHD16A_C205) [%] | SMILES
21 | 77.25 | 81 | – | C=CC(=O)N1C[C@H](c2ccc(Br)cc2)[C@H]1C(=O)Nc1cccc2cccnc12 [MY-3B, (2S,3S)-1-acryloyl-3-(4-bromophenyl)-N-(quinolin-8-yl)azetidine-2-carboxamide]
– | – | – | 62.50 | CC#CC(=O)N1C[C@H](c2ccc(Br)cc2)[C@@H]1C(=O)Nc1cccc2cccnc12 [MY-45B, (2R,3S)-3-(4-bromophenyl)-1-(but-2-ynoyl)-N-(quinolin-8-yl)azetidine-2-carboxamide]
